Experimental data as given in US8748485B2, “Compound and medical use thereof” (Ono Pharmaceuticals Co., Ltd., priority 2010, dated 2014).

Assay: Kinetic study in dogs (oral administration, plasma levodopa)
Details: dog, in vivo, po, 3 mg/kg; for Cmax/C6 hr (ratio of maximum plasma concentration and plasma concentration at 6 hours after oral administration, levodopa): male, beagle
Excerpt: The relationship between the blood concentration of levodopa and side effects in patients who take levodopa has been gradually elucidated. […] In order to reduce the number of doses of levodopa and avoid side effects such as dyskinesia and wearing-off in patients who take levodopa, it is necessary to maintain the blood concentration of levodopa within a therapeutic range as long as possible.
These levodopa prodrugs are prodrugs containing an ester bond, and therefore, it is considered that among a number of enzymes, carboxyesterase plays the most important role in the process of producing levodopa by metabolizing the compound after the compound is administered in vivo. Therefore, as an animal species to be used for performing a kinetic study, dogs in which the organ distribution of carboxyesterase is most similar to that of humans were selected as subjects for evaluation.
The thus obtained drug solution was administered by gavage through a gastric tube into the stomach of dogs (male beagle dogs) which were fasted from the day before the administration. At 15 and 30 minutes, and 1, 2, 4, 6, and 8 hours after administration of the drug solution, 1 mL of blood was collected from a cephalic vein with a heparinized syringe. Immediately after the collection, the collected blood was centrifuged in a desktop centrifuge at 14500 rpm for 45 seconds. Then, acetonitrile containing 0.1125% formic acid was added to the thus obtained plasma in an amount as twice as large as the volume of the plasma, followed by stirring, and then, the resulting sample was stored at −20° C. until measurement.
The sample was thawed on the measurement day, followed by stirring and centrifugation at 13000 rpm for 3 minutes (at 4° C.). The resulting supernatant was filtered and the filtrate was analyzed by LC/MS/MS. The analysis was performed by LC/MS/MS under the following conditions.
Measurement Apparatus: API-5000 (manufactured by Applied Biosystems, Inc.)
Analytical column: CAPCELL PAK CR (1:4) (4.6 mm, I.D.×250 mm, 5 μm)
Analytical column temperature: 40° C.
Mobile phase: A: 5 mM ammonium formate (pH 3.9), B: acetonitrile (A/B=17/3)
Detection (levodopa): m/z (precursor): 196.19, m/z (product): 134.99
DP (Declustering Potential): −60
CE (Collision Energy): −25
CXP (Collision Cell Exit Potential): −17
Incidentally, the numerical value in the column which indicates the dose expressed in terms of levodopa refers to a dose equivalent to that of levodopa.

| Compound | AUC (area under the blood concentration-time curve of levodopa) | Cmax/C6 hr (ratio of maximum plasma concentration and plasma concentration at 6 hours after oral administration, levodopa) |
| --- | --- | --- |
| Cl.N[C@@H](Cc1ccc(OC(=O)CC2CCCC2)c(OC(=O)CC2CCCC2)c1)C(=O)O [Reference Example 28, (2S)-2-Amino-3-(3,4-bis(2-cyclopentylacetoxy)phenyl)propanoic acid hydrochloride] | 0.68 μg^+ hr/mL | 304.4 |
| C[C@H](OC(=O)c1ccccc1)C(=O)Oc1ccc(C[C@H](N)C(=O)O)cc1OC(=O)[C@H](C)OC(=O)c1ccccc1.Cl [Reference Example 34, (2S)-2-Amino-3-(3,4-bis(((S)-2-(benzoyloxy)propanoyl)oxy)phenyl)propanoic acid hydrochloride] | 0.10 μg^+ hr/mL | 16.1 |
| CCC(C)(CC)CC(=O)Oc1ccc(C[C@H](N)C(=O)O)cc1OC(=O)CC(C)(CC)CC.Cl [Reference Example 21, (2S)-2-Amino-3-(3,4-bis((3-ethyl-3-methylpentanoyl)oxy)phenyl)propanoic acid hydrochloride] | 0.27 μg^+ hr/mL | 8.8 |
| CC(C)(C)CCC(=O)Oc1ccc(C[C@H](N)C(=O)O)cc1OC(=O)CCC(C)(C)C.Cl [Reference Example 19, (2S)-2-Amino-3-(3,4-bis((4,4-dimethylpentanoyl)oxy)phenyl)propanoic acid hydrochloride] | 0.70 μg^+ hr/mL | 221.2 |
| Cc1ccccc1C(=O)Oc1ccc(C[C@H](N)C(=O)O)cc1OC(=O)c1ccccc1C.Cl [Reference Example 23, (2S)-2-Amino-3-(3,4-bis((2-methylbenzoyl)oxy)phenyl)propanoic acid hydrochloride] | 0.59 μg^+ hr/mL | 41.5 |
| COC(=O)[C@@H](N)Cc1ccc(OC(=O)CC(C)(C)C)c(OC(=O)CC(C)(C)C)c1 [Compound X, 3,3-dimethyl-butyric acid 4-((S)-2-amino-2-methoxycarbonyl-ethyl)-2-(3,3-dimethyl-butyryloxy)phenyl ester] | 0.42 μg^+ hr/mL | 12.6 |
| CC1(CC(=O)Oc2ccc(C[C@H](N)C(=O)O)cc2OC(=O)CC2(C)CCCCC2)CCCCC1.Cl [Reference Example 30, (2S)-2-Amino-3-(3,4-bis(2-(1-methylcyclohexyl)acetoxy)phenyl)propanoic acid hydrochloride] | 0.36 μg^+ hr/mL | 12.8 |
| CC1(CC(=O)Oc2ccc(C[C@H](N)C(=O)O)cc2OC(=O)CC2(C)CCCC2)CCCC1.Cl [Reference Example 31, (2S)-2-Amino-3-(3,4-bis(2-(1-methylcyclopentyl)acetoxy)phenyl)propanoic acid hydrochloride] | 0.42 μg^+ hr/mL | 18.7 |
| Cl.N[C@@H](Cc1ccc(OC(=O)CC2CCCCC2)c(OC(=O)CC2CCCCC2)c1)C(=O)O [Reference Example 29, (2S)-2-Amino-3-(3,4-bis(2-cyclohexylacetoxy)phenyl)propanoic acid hydrochloride] | 0.59 μg^+ hr/mL | 98.5 |
| CC1(C(=O)Oc2ccc(C[C@H](N)C(=O)O)cc2OC(=O)C2(C)CC2)CC1.Cl [Reference Example 27, (2S)-2-Amino-3-(3,4-bis((1-methylcyclopropanecarbonyl)oxy)phenyl)propanoic acid hydrochloride] | 0.84 μg^+ hr/mL | 58.7 |
| N[C@@H](Cc1ccc(OC(=O)c2ccccc2C(F)(F)F)c(OC(=O)c2ccccc2C(F)(F)F)c1)C(=O)O [Reference Example 25, (2S)-2-Amino-3-(3,4-bis((2-(trifluoromethyl)benzoyl)oxy)phenyl)propanoic acid] | 0.31 μg^+ hr/mL | 24.2 |
| CC(C)C(CC(=O)Oc1ccc(C[C@H](N)C(=O)O)cc1OC(=O)CC(C(C)C)C(C)C)C(C)C.Cl [Reference Example 22, (2S)-2-Amino-3-(3,4-bis((3-isopropyl-4-methylpentanoyl)oxy)phenyl)propanoic acid hydrochloride] | 0.28 μg^+ hr/mL | 6.6 |
| CC(=O)OC(C)(C)C(=O)Oc1ccc(C[C@H](N)C(=O)O)cc1OC(=O)C(C)(C)OC(C)=O.Cl [Reference Example 32, (2S)-2-Amino-3-(3,4-bis((2-acetoxy-2-methylpropanoyl)oxy)phenyl)propanoic acid hydrochloride] | 0.53 μg^+ hr/mL | 40.7 |
| C[C@@H](OC(=O)c1ccccc1)C(=O)Oc1ccc(C[C@H](N)C(=O)O)cc1OC(=O)[C@@H](C)OC(=O)c1ccccc1.Cl [Reference Example 35, (2S)-2-Amino-3-(3,4-bis(((R)-2-(benzoyloxy)propanoyl)oxy)phenyl)propanoic acid hydrochloride] | 0.77 μg^+ hr/mL | 1039.6 |
| CCC(CC)(OC(=O)c1ccccc1)C(=O)Oc1ccc(C[C@H](N)C(=O)O)cc1OC(=O)C(CC)(CC)OC(=O)c1ccccc1.Cl [Reference Example 33, (2S)-2-Amino-3-(3,4-bis((2-(benzoyloxy)-2-ethylbutanoyl)oxy)phenyl)propanoic acid hydrochloride] | 0.003 μg^+ hr/mL | 2.0 |
| Cl.N[C@@H](Cc1ccc(OC(=O)C2CC2)c(OC(=O)C2CC2)c1)C(=O)O [Reference Example 26, (2S)-2-Amino-3-(3,4-bis((cyclopropanecarbonyl)oxy)phenyl)propanoic acid hydrochloride] | 0.45 μg^+ hr/mL | 18.0 |
| CCC(C)(CC)C(=O)Oc1ccc(C[C@H](N)C(=O)O)cc1OC(=O)C(C)(CC)CC.Cl [Reference Example 18, (2S)-2-Amino-3-(3,4-bis((2-ethyl-2-methylbutanoyl)oxy)phenyl)propanoic acid hydrochloride] | 0.12 μg^+ hr/mL | 2.9 |
